Experimental findings from patent US5462941A, “3,6-disubstituted pyradazine derivatives” (Mitsubishi Chemical Corporation, priority 1991, dated 1995) are described below.

Test [1] relates to Myocardial Infarction of a Rat. The test can be described thus: Effect on myocardial infarction of a rat induced by ligation of the left coronary artery. The following applies: oral, 60 minutes before ligation. In kind it is in vivo, rat (male SD). The method, then: Effects of 3,6-Disubstituted Pyridazine Derivatives on the Myocardial Infarction of a Rat Induced by the Ligation of the Left Coronary Artery
A rat group consisting of 8 male SD rats each weighing 200 to 250 g was tested. Myocardial infarction was produced in accordance with a method of Selye et al. That is, each rat was fixed on an operating boar on its back, and an about 1.5 cm incision had been made through the skin along the left sternal border under weak etherization. The pericardium was broken to exteriorize the heart, and the left coronary artery was ligated at a position of 1 to 2 mm apart from the origin thereof with black blade 4-O silk suture (produced by Hama Ika Kogyo). Thereafter, the heart was restored to its original position and the chest was sutured. The air in the throacic cavity was discharged by pressing both side breast portions. After the resumption of respiration, the ST elevation in the standard limb lead II by an electrocardiograph (Model ECG-6601, produced by Nihon Koden Co.,). 24 hours after the ligation, blood was collected from the aortas at the abdomen. A fatal amount of blood was then drawn from each rat. The heart was taken out, and a tissue slice (about 2 mm thick) having an annular cross section was cut from the central portion of the heart. The tissue slice was incubated in 20 ml of 1% TTC (tryphenyl tetrazolium chloride, produced by Wako Pure Chemical Industries Limited) dissolved in 0.09M of phosphoric acid buffer (pH 8.6) at 37° C. for 20 minutes while shielding light. The tissue slice was photographed by a stereoscopic microscope to produce a color slide. The image of the tissue slice was projected on a wall surface from the color slide. The cut surface, the infarcted portion (portion not dyed with TTC) and the non-infarcted portion (portion dyed with TTC) were traced on a sheet, and the area of the infarcted portion in the whole cross section was calculated. The medicine was suspended in an aqueous 1% tragacanth solution and orally administered to each rat 60 minutes before the ligation of the left coronary artery.
The myocardial infarction inhibitory ratio was calculated from the following formula: [formula] A: Infarction degree in the group (controlled group) to which only a solution of 1% tragacanth was administered
B: Infarction degree in the group to which the tragacanth solution containing a medicine was administered

Test [2] relates to Platelet Agglutination of Rats. Briefly: Inhibitory effect on collagen-induced platelet agglutination of rats in vitro (platelet rich plasma). The test is classed as cell-based. The following applies: rat platelet rich plasma, read-out: in vitro Inhibitory ratio (platelet agglutination); for inhibition at 0.3 µM: 3 × 10^-7 M; for inhibition at 0.1 µM: 10^-7 M; for inhibition at 1 µM: 10^-6 M. The method, then:
Inhibitory Effects of 3,6-Disubstituted Pyridazine Derivatives on Platelet Agglutination of Rats […]
Arterial blood of a rat was centrifuged to obtain platelet rich plasma. […] of a medicinal solution was added to 250 μl of the platelet rich plasma, and the mixture was incubated for 2 minutes. Thereafter, 3 μg of collagen (produced by Hormon-Chemie) was added to the mixture as a platelet agglutination inducer, and changes in the platelet agglutination were observed and recorded by a 2-channel platelet agglutination degree measuring instrument (Model DP247E, produced by Sienco) for 10 minutes.
(§1) The platelet agglutination inhibitory ratio was calculated from the following formula:
Inhibitory ratio=(Tc-Ts)/Tc×100
Tc: Agglutination degree when only a solvent was added
Ts: Agglutination degree when a medicinal solution was added

The subject of test [3] is Platelet Agglutination of Rats. The test can be described thus: Inhibitory effect on collagen-induced platelet agglutination of rats after oral administration (ex vivo). In kind it is in vivo, rat (male Wistar-ST). The settings on record: 1 mg/kg p.o., blood collected one hour after; collagen 7 to 10 μg/ml; rat. The method, then:
Inhibitory Effects of 3,6-Disubstituted Pyridazine Derivatives on Platelet Agglutination of Rats In Vivo (Oral Administration)
A rat group consisting of 8 male Wistar-ST rats each weighing about 250 g was tested. Each compound was suspended in aqueous 1% tragacanth solution. The thus-prepared suspension was orally administered to each rat at a dose of 4 ml/kg. One hour after, blood was collected from each carotid artery through a cannula into a plastic test tube containing 3.8% sodium citrate in amount corresponding to 1/10 of the volume of the test tube) and the mixture was stirred. Thereafter, the mixture was centrifuged at 200×g rpm for 15 minutes, and the supernatant liquid was taken as platelet rich plasma (PRP). The residue was further centrifuged at 2000×g rpm for 15 minutes, and the supernatant liquid was collected as platelet poor plasma (PPP) and used for measurement of the platelet agglutinating ability. The platelet agglutinating ability was measured by a 2-channel platelet agglutination degree measuring instrument (Model DP247E, produced by Sienco), and recorded by a 2-pen recorder.
Collagen (produced by Hormon-Chemie) having a concentration of 7 to 10 μg/ml was used as a platelet agglutination inducer.
as §1
Inhibitory ratio=(A-B)/A×100 (%)
A: Agglutination degree in the group (controlled group) to which only a solution of 1% tragacanth was administered
B: Agglutination degree in the group to which the tragacanth solution containing a compound was administered

With `CC(=O)Oc1ccccc1C(=O)O` [Aspirin, reference compound], in test [1] (100 mg/kg), the “percentage of inhibition (myocardial infarction)” value (“percentage of inhibition” for short) was 10.7 percentage.

With `C[C@@H](Nc1nnc(C2CCCCC2)c2ccccc12)c1ccccc1` [Example 1, (R)-1-(α-phenylethylamino)-4-cyclohexylphthalazine], in test [2], the inhibition at 0.3 µM was found to be 97.1% and the inhibition at 0.1 µM was determined as 89.2%. For `CCC(Nc1nnc(C2CCCCC2)c2ccccc12)c1ccccc1` (centres unmarked) [Example 2] the same measures were 96% and 56%. For `c1ccc2c(C3CCCCC3)nnc(NC3CCCCC3)c2c1` [Example 3], in test [2], the inhibition at 0.3 µM stood at 18.4% and the inhibition at 1 µM was determined as 100%. `CC1(C)CC(Nc2nnc(C3CCCCC3)c3ccccc23)CC(C)(C)C1` [Example 5]: the inhibition at 1 µM in test [2] was 51.8%. On to `C[C@@H](Nc1nnc(-c2ccsc2)c2ccccc12)c1ccccc1` [Example 39, (R)-1-(α-phenylethylamino)-4-(3-thienyl) phthalazine], for which the inhibition at 0.1 µM in test [2] is 94.9%.

`Cc1csc(-c2nnc(N[C@H](C)c3ccccc3)c3ccccc23)c1` [Example 42, (R)-1-(α-phenylethylamino)-4-(4-methyl-2-thienyl)phthalazine]: in test [2], the inhibition at 0.1 µM is 96.3%.

Turning to `C[C@@H](Nc1nnc(-c2ccco2)c2ccccc12)C1CCCCC1` [Example 45, (R)-1-(α-cyclohexylethylamino)-4-(2-furyl)phthalazine], in test [2], the inhibition at 0.1 µM was 98.6%. For `c1coc(-c2nnc(-n3ccnc3)c3ccccc23)c1` [Example 46, 1-(1-imidazolyl)-4-(2-furyl)phthalazine], in test [2], the inhibition at 0.3 µM amounted to 40.6% and the inhibition at 1 µM worked out at 66.5%. Turning to `C[C@@H](Nc1nnc(-c2ccccc2)c2ccccc12)C1CCCCC1` [Example 60, (R)-1-(1-cyclohexylethylamino)-4-phenylphthalazine], the “ex vivo Inhibitory ratio (platelet agglutination)” value (“ex vivo Inhibitory ratio” for short) in test [3] is 51.3%. For the same compound, the “percentage of inhibition” value in test [1] (1 mg/kg) was found to be 68.5 percentage; in test [1] (3 mg/kg), 82.2 percentage. The inhibition at 0.1 µM in test [2] was 94.3%. For the compound `C[C@H](Nc1nnc(-c2ccccc2)c2ccccc12)C1CCCCC1` [Example 61], in test [2], the inhibition at 0.3 µM worked out at 94.4% and the inhibition at 0.1 µM is 30.2%.

`C[C@@H](Nc1nnc(-c2cccs2)c2sccc12)c1ccccc1` [Example 69, (R)-4-(1-phenylethylamino)-7-(2-thienyl) thieno[2 3-d]pyridazine]: in test [2], the inhibition at 0.3 µM was found to be 95.2% and the inhibition at 0.1 µM worked out at 50.8%. As for `C[C@@H](Nc1nnc(-c2ccccc2)c2sccc12)c1ccccc1` [Example 70], the inhibition at 0.1 µM in test [2] is 95.2%. As for `CCC(Nc1nnc(-c2ccccc2)c2sccc12)c1ccccc1` (centres unmarked) [Example 71], in test [2], the inhibition at 0.3 µM was determined as 98.6% and the inhibition at 0.1 µM was determined as 30.7%. Taken in the same sequence, the figures for `CC(Nc1nnc(-c2ccccc2)c2sccc12)c1ccccc1Cl` (centres unmarked) [Example 72] were 95.3% and 5.1%. For `Cc1cccc(C(C)Nc2nnc(-c3ccccc3)c3sccc23)c1` (centres unmarked) [Example 73] the same measures were 95.6% and 42.8%.

For `COc1ccccc1C(C)Nc1nnc(-c2ccccc2)c2sccc12` (centres unmarked) [Example 74], in test [2], the inhibition at 0.3 µM was found to be 93.5% and the inhibition at 0.1 µM amounted to 73.4%. Turning to `C[C@@H](Nc1nnc(-c2ccccc2)c2sccc12)C1CCCCC1` [Example 75], the “ex vivo Inhibitory ratio” value in test [3] came out at 50.2%. The inhibition at 0.1 µM in test [2] stood at 94.5%. `Cc1ccccc1-c1nnc(N[C@H](C)c2ccccc2)c2ccsc12` [Example 79]: in test [2], the inhibition at 0.3 µM worked out at 6.6% and the inhibition at 1 µM was found to be 94.3%.

Take `c1ccc(-c2nnc(NC3CCCCC3)c3ccsc23)cc1` [Example 80]: the inhibition at 0.1 µM in test [2] stood at 100%.

As for `C[C@@H](Nc1nnc(-c2ccccc2)c2ccsc12)c1ccccc1` [Example 82], the “ex vivo Inhibitory ratio” value in test [3] is given as 37.9%. In test [2], the inhibition at 0.1 µM came out at 93.3%.

Regarding `C[C@H](Nc1nnc(-c2ccccc2)c2ccsc12)c1ccccc1` [Example 83], in test [2], the inhibition at 0.3 µM worked out at 94.3%. As to `CCC(Nc1nnc(-c2ccccc2)c2ccsc12)c1ccccc1` (centres unmarked) [Example 84], in test [2], the inhibition at 0.3 µM amounted to 24.5% and the inhibition at 1 µM turned out to be 61.6%. As to `CCCCC(Nc1nnc(-c2ccccc2)c2ccsc12)c1ccccc1` (centres unmarked) [Example 85], the inhibition at 1 µM in test [2] was 40.7%. Turning to `CC(Nc1nnc(-c2ccccc2)c2ccsc12)c1ccccc1Cl` (centres unmarked) [Example 86], in test [2], the inhibition at 0.3 µM was 78.2% and the inhibition at 1 µM was 90.2%. Turning to `Cc1cccc(C(C)Nc2nnc(-c3ccccc3)c3ccsc23)c1` (centres unmarked) [Example 87], in test [2], the inhibition at 1 µM came to 18%. `COc1ccccc1C(C)Nc1nnc(-c2ccccc2)c2ccsc12` (centres unmarked) [Example 89]: in test [2], the inhibition at 0.3 µM was 49.5% and the inhibition at 1 µM turned out to be 95.4%. As to `C[C@@H](Nc1nnc(-c2ccccc2)c2ccsc12)C1CCCCC1` [Example 90], in test [3], the “ex vivo Inhibitory ratio” value is 60.6%. In test [2], the inhibition at 0.3 µM turned out to be 94.4% and the inhibition at 0.1 µM came to 32.7%. `C[C@@H](Nc1nnc(-c2ccccc2)c2occc12)C1CCCCC1` [Example 95, (R)-4-(1-cyclohexylethylamino)-7-phenyl-furano[2,3-d]pyridazine]: the “ex vivo Inhibitory ratio” value in test [3] came out at 63.1%. In test [2], the inhibition at 0.3 µM is 100% and the inhibition at 0.1 µM amounted to 94.4%.

As to `Clc1ccccc1CN1CCc2sccc2C1` [Ticlopidine, reference compound], in test [1] (30 mg/kg), the “percentage of inhibition” value was 10.1 percentage.
